Usually pIC50 stands for the negative decadic logarithm of the IC50, by convention in mol/L. A high value points to a small IC50.

pIC50: −log10 of the molar value.

The results in this text go back to patent publication US9242969B2, “Biaryl amide compounds as kinase inhibitors” (Novartis AG, priority 2013, dated 2016).

The target of the test is C-Raf TR (Δ1-324 deletion mutant with activating mutations) (Homo sapiens (Human), UniProt P04049, Y340E/Y341E). The format is biochemical. To be noted: truncated C-Raf (Δ1-324), ATP 3 uM, 10 nM biotinylated MEK1 kinase dead. The protocol: biotinylated Mek, Kinase dead approximately 10 nM
Chain of C-Raf TR (Δ1-324 deletion mutant with activating mutations) (P04049 325-648 Y340E/Y341E): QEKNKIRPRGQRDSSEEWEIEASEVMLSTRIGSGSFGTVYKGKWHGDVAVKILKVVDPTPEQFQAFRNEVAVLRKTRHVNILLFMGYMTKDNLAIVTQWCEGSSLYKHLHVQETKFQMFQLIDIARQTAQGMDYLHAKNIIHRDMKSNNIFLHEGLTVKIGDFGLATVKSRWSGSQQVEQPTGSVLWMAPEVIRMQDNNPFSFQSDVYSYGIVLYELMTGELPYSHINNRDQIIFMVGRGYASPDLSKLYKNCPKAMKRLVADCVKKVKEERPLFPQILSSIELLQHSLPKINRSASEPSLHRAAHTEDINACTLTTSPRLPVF
Pre-incubation time with compounds 30 minutes at room temperature
Reaction time 2 hours at room temperature
Plates were sealed and stored overnight in the dark at room temperature. Plates were counted in a Perkin Elmer Envision instrument.
`Cc1ccc(C(=O)Nc2cccc(C(F)(F)F)c2)cc1-c1nc(N2CCOCC2)cc(N2CCOCC2)n1` [Example 14, 3-(4,6-dimorpholinopyrimidin-2-yl)-4-methyl-N-(3-(trifluoromethyl)phenyl)benzamide]: the pIC50 was 9.10.
In the case of `Cc1ccc(C(=O)Nc2cccc(C(F)(F)F)c2)cc1-c1ccnc(N2CCOCC2)c1` [Example 63, 4-Methyl-3-(2-morpholinopyridin-4-yl)-N-(3-(trifluoromethyl)phenyl)benzamide] it was 9.29; in that of `Cc1ccc(NC(=O)c2cccc(C(F)(F)F)c2)cc1-c1cncc(N2CCOCC2)n1` [Example 118, N-(4-methyl-3-(6-morpholinopyrazin-2-yl)phenyl)-3-(trifluoromethyl)benzamide], 9.51.
In the case of `Cc1ccc(NC(=O)c2cccc(C(F)(F)F)c2)cc1-c1cn(C)c(=O)c(N2CCOCC2)n1` [Example 119, N-(4-methyl-3-(4-methyl-6-morpholino-5-oxo-4,5-dihydropyrazin-2-yl)phenyl)-3-(trifluoromethyl)benzamide] it was 9.57.
In the case of `Cc1ccc(NC(=O)c2cccc(C(F)(F)F)c2)cc1-c1csc(N2CCOCC2)n1` [Example 199, N-(4-methyl-3-(2-morpholinothiazol-4-yl)phenyl)-3-(trifluoromethyl)benzamide] it was 8.89.
